Experiments:
Progestin Receptor = molecular target: T1, Progestin Receptor (Oryctolagus cuniculus, UniProt P06186); assay: Progestin Receptor Binding (competitive binding, 3H-promegestone, rabbit uterus receptor preparation); set-up: species or system New Zealand rabbits; conditions: 3H-promegestone displacement, 4° C., 18 h
T1 construct: The high speed supernatant fraction was used as the receptor preparation; from tissue; host or cells: uterus of New Zealand rabbits, 200,000×g supernatant (cytosol)
T1 sequence (P06186 1-930): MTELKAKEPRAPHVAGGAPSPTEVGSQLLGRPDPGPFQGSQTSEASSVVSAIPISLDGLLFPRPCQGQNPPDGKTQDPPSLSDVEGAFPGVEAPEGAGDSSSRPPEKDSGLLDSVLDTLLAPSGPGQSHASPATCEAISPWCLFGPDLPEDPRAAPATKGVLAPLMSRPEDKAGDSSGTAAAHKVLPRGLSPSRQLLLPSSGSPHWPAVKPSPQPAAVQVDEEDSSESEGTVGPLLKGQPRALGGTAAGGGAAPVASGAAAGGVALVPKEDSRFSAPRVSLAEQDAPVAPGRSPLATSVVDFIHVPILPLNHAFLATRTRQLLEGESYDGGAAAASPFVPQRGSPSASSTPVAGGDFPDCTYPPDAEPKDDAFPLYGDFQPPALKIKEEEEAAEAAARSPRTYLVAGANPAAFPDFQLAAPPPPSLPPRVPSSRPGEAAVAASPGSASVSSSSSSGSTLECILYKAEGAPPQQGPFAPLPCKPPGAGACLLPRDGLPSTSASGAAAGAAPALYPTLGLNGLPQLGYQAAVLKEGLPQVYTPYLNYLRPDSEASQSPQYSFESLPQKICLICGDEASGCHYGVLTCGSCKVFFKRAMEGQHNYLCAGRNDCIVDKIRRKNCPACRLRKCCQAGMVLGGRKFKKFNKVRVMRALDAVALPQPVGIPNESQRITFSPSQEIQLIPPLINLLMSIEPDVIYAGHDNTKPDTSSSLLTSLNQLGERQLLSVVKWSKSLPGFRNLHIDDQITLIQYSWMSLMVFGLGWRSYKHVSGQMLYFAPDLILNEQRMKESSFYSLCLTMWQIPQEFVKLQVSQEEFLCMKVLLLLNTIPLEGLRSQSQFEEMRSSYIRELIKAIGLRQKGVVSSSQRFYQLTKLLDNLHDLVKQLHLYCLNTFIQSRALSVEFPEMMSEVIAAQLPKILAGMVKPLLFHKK
Protocol: Progestin Receptor Binding
The procedure used was essentially that of J. L. McGuire, C.
Uteri from New Zealand rabbits (1.5 to 2.5 kg) were placed in a cold buffer A (0.01 mol Tris-HCl, pH 8.0, 0.001 mol EDTA, 0.25 mol sucrose). The uteri were minced, washed and homogenized in cold buffer A. The homogenate (2 g wet tissue/mL buffer) was centrifuged at 200,000×g for 1 h at 4° C. The high speed supernatant fraction was used as the receptor preparation.
A competitive binding assay was performed by mixing 3H-promegestone with the receptor preparation and adding a known amount of unlabeled compound. This mixture was incubated at 4° C. for 18 h. The compounds bound to the receptor were separated from those which were free in solution using dextran coated charcoal and the amount of isotope bound to the receptor was determined by scintillation counting. The extent of the compound's interaction with the receptor is measured as the percent reduction in the total isotope bound caused by the unlabeled test compound as compared to the control levels. The receptor screen consists of measuring the reduction in the total isotope bound caused by the unlabeled test compound at […] final concentrations.

[1] = system: T47D human breast carcinoma cells; assay: Assay to Demonstrate Ability to Increase Breast Cell Proliferation ([3H]-thymidine incorporation); format: cell-based; conditions: at the concentration of the same table line, control level set at 100%
Protocol: This assay is used to measure the sex steroid effects of compounds. The activity of compounds in this assay is an indication of their potential use as replacements for naturally occuring hormones in individuals with sex hormone deficiencies.
T47D human breast carcinoma cells are grown in 96-well plates in phenol-red free nutrient media at 37° C. for 48 hours. Conditioned media is removed and replaced with fresh media containing test compounds dissolved in DMSO (0.1% final concentration) and the cells are incubated for an additional 18-20 hours at 37° C. [^3 H]-thymidine is added to each well and allowed to incorporate into DNA for 4 hours. Unlabeled thymidine is then added to terminate the reaction, and the cultures are then washed, trypsinized and harvested. The amount of [^3 H]-thymidineincorporated into DNA is determined by liquid scintillation. Data for each well are expressed as a percent above control level, which is set at 100%. The concentration at which maximal deviation from control is found and the magnitude of that percent deviation is reported. Table T lists the data for some of the compounds of this invention.

[2] = system: endometrial proliferation; assay: Assay to Determine Effect of Compound on Uterine Proliferation (Clauberg Test); format: in vivo, immature female white rabbits; conditions: 40 mg/kg subcutaneously; scale 0 (no response)-4 (maximum response); estradiol-primed immature rabbits, daily for five days
Protocol: Assay to Determine Effect of Compound on Uterine Proliferation
The procedure used was essentially that of M. K. McPhail, J. Physiology, 83, 145 (1934). Groups of immature female white rabbits (750-950 g) were primed with a daily subcutaneous injection, for 6 days, with 5 micrograms of 17β-estradiol in 0.2 ml of sesame oil. Starting on the 7th day, they received the test compound daily for five days in the appropriate vehicle. The rabbits were sacrificed approximately 24 hours after the last administration, and the uteri were excised, cleaned and weighed. Portions of both uterine horns were fixed in 10% neutral formalin, sectioned at […] and stained with hematoxylin and eosin. Progestational activity was assessed as in the McGinty Test. The evaluation for endometrial proliferation was made according to a McPhail Index. Each slide was graded for each rabbit on a 0 (no response)-4 (maximum response) scale.

SMILES | IC50 (Progestin Receptor) [nM] | % control (magnitude of maximal deviation from control) [1] [%] | McPhail Index [2]
CCC[C@]12Cc3ccccc3C1=C[C@@H](C)c1ccc(OC)cc1C2 (relative stereo) [Compound 38] | 25 | 189 | 4
CCC[C@]12Cc3ccccc3C1=C[C@@H](C)c1ccc(N)cc1C2 (relative stereo) [Compound 85] | 19 | 215 | 
COc1ccc2c(c1)CC1(C)Cc3cc(F)ccc3C1=CC2C (stereo not shown) [Compound 30, 2-Fluoro-6,11,11a,12-tetrahydro-9-methoxy-6,11a-dimethyldibenz[a,f]azulene] | 6 | 204 | 
COc1ccc2c(c1)CC1(C)Cc3cc(F)ccc3C1C(O)C2C (stereo not shown) [Compound 45] | 115 | 191 | 
CCC12Cc3ccccc3C(C)CC1c1ccccc1C2 (stereo not shown) [Compound 53] | 57 | 50 | 
CC1CC2c3ccc(F)cc3CC2(C)Cc2cc(Oc3nnnn3-c3ccccc3)ccc21 (stereo not shown) [Compound 63, 6,11a-Dimethyl-2-fluoro-9-(1-phenyl-5-tetrazolyl)-oxy-4b,5,6,11,11a,12-hexahydrodibenz[a,f]azulene] | 55 | 94 | 
CC1CC2c3ccc(F)cc3CC2(C)Cc2ccccc21 (stereo not shown) [Compound 69, 6,11a-Dimethyl-2-fluoro-4b,5,6,11,11a,12-hexahydrodibenz[a,f]azulene] | 37 |  | 
COc1ccc2c(c1)CC1(C)Cc3cc(OC)ccc3C1C(=O)C2 (stereo not shown) [Compound 75] | 555 |  | 
COc1ccc2c(c1)CC1(C)Cc3cc(OC)ccc3C1C(O)C2C (stereo not shown) [Compound 78] |  | 112 | 
COc1cc2c(cc1[N+](=O)[O-])C(C)C(O[N+](=O)[O-])C1c3ccccc3CC1(C)C2 (stereo not shown) [Compound 81, 5-(6,11a,-Dimethyl-9-methoxy-8-nitro-4b,5,6,11,11a,12-hexahydro)dibenz[a,f]azulenyl nitrate ester] | 82 | 56 | 
COc1ccc2c(c1[N+](=O)[O-])CC1(C)Cc3ccccc3C1C(O[N+](=O)[O-])C2C (stereo not shown) [Compound 82, 5-(6,11a-Dimethyl-9-methoxy-10-nitro-4b-5,6,11,11a,12-hexahydro)dibenz[a,f]azulenyl nitrate ester] | 99 |  | 
CC1CC2c3ccccc3CC2(C)Cc2cc(F)ccc21 (stereo not shown) [Compound 88, 6,11a-Dimethyl-9-fluoro-4b,5,6,11,11a,12-hexahydrodibenz[a,f]azulene] | 34 | 187 | 
CC1CC2c3ccccc3CC2(C)Cc2cc(N)ccc21 (stereo not shown) [Compound 89, 9-Amino-6,11a-dimethyl-4b,5,6,11,11a,12-hexahydrodibenz[a,f]azulene] | 137 |  | 
CC(=O)Nc1cc2c(cc1[N+](=O)[O-])C(C)CC1c3ccccc3CC1(C)C2 (stereo not shown) [Compound 91] | 115 |  | 
CC12Cc3ccccc3C1CCc1c(N)cccc1C2 (stereo not shown) [Compound 96] | 34 |  | 
CC12Cc3ccccc3C1CCc1c(F)cccc1C2 (stereo not shown) [Compound 98] | 60 |  | 
CC1CC2c3ccccc3CC2(C)Cc2c1cc([N+](=O)[O-])c(O)c2[N+](=O)[O-] (stereo not shown) [Compound 101, 4b,5,6,11,11a,12-Hexahydro-9-hydroxy-6,11a-dimethyl-8,10-dinitrodibenz[a,f]azulene] | 621 |  | 
COc1cc2c(cc1[N+](=O)[O-])C(C)CC1c3ccccc3CC1(C)C2 (stereo not shown) [Compound 102, 4b,5,6,11,11a,12-Hexahydro-9-methoxy-6,11a-dimethyl-8-nitro-dibenz[a,f]azulene] | 1470 |  | 
COc1ccc2c(c1)CC1(C)Cc3ccccc3C1CC2C (stereo not shown) [Compound 107, 4b,5,6,11,11a,12-Hexahydro-9-methoxy-6,11a-dimethyldibenz-[a,f]azulene] | 678 |  | 
CC(=O)Oc1cccc2c1CCC1c3ccccc3CC1(C)C2 (stereo not shown) [Compound 108] | 29 |  | 

The next lines start with results.

IC50 (Progestin Receptor) [nM] | SMILES | % control (magnitude of maximal deviation from control) [1] [%] | McPhail Index [2]
27 | CCCC12Cc3cc(OC)ccc3CC=C1c1ccccc1C2 (stereo not shown) [Compound 27] | 224 | 
57 | CCC12Cc3cc(OC)ccc3CC=C1c1ccccc1C2 (stereo not shown) [Compound 43] | 151 | 
42 | Cc1ccc2c(c1)CC1(C)Cc3ccccc3C1=CC2 (stereo not shown) [Compound 70] | 173 | 
1970 | CC(=O)Nc1ccc2c(c1)CC1(C)Cc3ccccc3C1=CC2C (stereo not shown) [Compound 83, 9-Acetamido-6,11,11a,12-tetrahydro-6,11a-dimethyldibenz[a,f]azulene] |  | 
1770 | CC(=O)Nc1ccc2c(c1)CC1(C)Cc3ccccc3C1=CC2 (stereo not shown) [Compound 95] |  | 
676 | C=C1C=C2c3ccccc3CC2(C)Cc2cc(OC)ccc21 (stereo not shown) [Compound 105, 6,11,11a,12-Tetrahydro-6-methenyl-9-methoxy-11a-methyldibenz[a,f]azulene] |  | 
105 | COc1ccc2c(c1)CC1(C)Cc3ccccc3C1=CC2C (stereo not shown) [Compound 106, 6,11,11a,12-Tetrahydro-9-methoxy-6,11a-dimethyldibenz[a,f]-azulene] |  | 
6 | CC(=O)Oc1cccc2c1CC=C1c3ccc(F)cc3CC1(C)C2 (stereo not shown) [Compound 113] | 470 | 
93 | COc1ccc2c(c1)CC1(C)Cc3cccc(OC(C)=O)c3CC=C21 (stereo not shown) [Compound 117] | 160 | 
